What was measured:
Test in all cases: Test E pre-/postemergence herbicide test
common mallow = type: in vivo, Malva sylvestris
Method in brief: (§1)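 Test chemicals in a non-phytotoxic solvent mixture with surfactant applied preemergence to planted seeds and postemergence to plants 2 to 18 cm tall (1- to 4-leaf stage). After 12 to 14 days in the greenhouse, injury rated visually against untreated controls on a 0–100 scale (0 no effect, 100 complete control).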

goosegrass = type: in vivo, Eleusine indica
Method in brief: as §1

barnyardgrass = type: in vivo, Echinochloa crus-galli
Method in brief: as §1

dallisgrass = type: in vivo, Paspalum dilatatum
Method in brief: as §1

pitted morningglory = type: in vivo, Ipomoea lacunosa
Method in brief: as §1

common ragweed = type: in vivo, Ambrosia elatior
Method in brief: as §1

annual bluegrass = type: in vivo, Poa annua
Method in brief: as §1

broadleaf signalgrass = type: in vivo, Brachiaria platyphylla
Method in brief: as §1

common groundsel = type: in vivo, Senecio vulgaris
Method in brief: as §1

itchgrass = type: in vivo, Rottboellia cochinchinensis
Method in brief: as §1

Surinam grass = type: in vivo, Urochloa decumbens
Method in brief: as §1

tropical spiderwort = type: in vivo, Commelina benghalensis
Method in brief: as §1

[1] = Postemergence, 500 g ai/ha, scale 0 to 100
[2] = Postemergence, 250 g ai/ha, scale 0 to 100
[3] = Preemergence, 62 g ai/ha, scale 0 to 100
[4] = Preemergence, 125 g ai/ha, scale 0 (no effect) to 100 (complete control)
[5] = Preemergence, 500 g ai/ha, scale 0 (no effect) to 100 (complete control)
[6] = postemergence, 125 g ai/ha, scale 0 to 100
[7] = postemergence, 62 g ai/ha, scale 0 to 100
[8] = Preemergence, 250 g ai/ha, scale 0 (no effect) to 100 (complete control)

## CCn1nc(C(C)(C)C)cc1C(=O)Nc1cc(C(=O)N(C)C)ccc1F [Compound 6, N-[5-[(dimethylamino)carbonyl]-2-fluorophenyl]-3-(1,1-dimethylethyl)-1-ethyl-1H-pyrazole-5-carboxamide]
Common mallow; [1]
  Plant response rating, Mallow: 100
Common mallow; [2]
  Plant response rating, Mallow: 100
Common mallow; [3]
  Plant response rating, Mallow: 70
Common mallow; [4]
  Plant response rating, Mallow: 100
Common mallow; [5]
  Plant response rating, Mallow: 100
Common mallow; [6]
  Plant response rating, Mallow: 95
Common mallow; [7]
  Plant response rating, Mallow: 65
goosegrass; [1]
  Plant response rating, Goosegrass: 98
goosegrass; [2]
  Plant response rating, Goosegrass: 98
goosegrass; [3]
  Plant response rating, Goosegrass: 85
goosegrass; [4]
  Plant response rating, Goosegrass: 95
goosegrass; [5]
  Plant response rating, Goosegrass: 100
goosegrass; [6]
  Plant response rating, Goosegrass: 98
goosegrass; [7]
  Plant response rating, Goosegrass: 90
barnyardgrass; [1]
  Plant response rating, Barnyardgrass: 98
barnyardgrass; [2]
  Plant response rating, Barnyardgrass: 95
barnyardgrass; [3]
  Plant response rating, Barnyardgrass: 90
barnyardgrass; [4]
  Plant response rating, Barnyardgrass: 95
barnyardgrass; [8]
  Plant response rating, Barnyardgrass: 95
barnyardgrass; [5]
  Plant response rating, Barnyardgrass: 100
barnyardgrass; [6]
  Plant response rating, Barnyardgrass: 90
barnyardgrass; [7]
  Plant response rating, Barnyardgrass: 80
dallisgrass; [1]
  Plant response rating, Dallisgrass: 90
dallisgrass; [2]
  Plant response rating, Dallisgrass: 80
dallisgrass; [3]
  Plant response rating, Dallisgrass: 90
dallisgrass; [4]
  Plant response rating, Dallisgrass: 95
dallisgrass; [8]
  Plant response rating, Dallisgrass: 95
dallisgrass; [5]
  Plant response rating, Dallisgrass: 100
dallisgrass; [6]
  Plant response rating, Dallisgrass: 75
dallisgrass; [7]
  Plant response rating, Dallisgrass: 60
Pitted morningglory; [1]
  Plant response rating, Morningglory: 80
Pitted morningglory; [2]
  Plant response rating, Morningglory: 60
Pitted morningglory; [3]
  Plant response rating, Morningglory: 20
Pitted morningglory; [4]
  Plant response rating, Morningglory: 70
Pitted morningglory; [5]
  Plant response rating, Morningglory: 100
Pitted morningglory; [6]
  Plant response rating, Morningglory: 10
Pitted morningglory; [7]
  Plant response rating, Morningglory: 0
Common ragweed; [1]
  Plant response rating, Ragweed: 95
Common ragweed; [2]
  Plant response rating, Ragweed: 95
Common ragweed; [3]
  Plant response rating, Ragweed: 50
Common ragweed; [4]
  Plant response rating, Ragweed: 80
Common ragweed; [5]
  Plant response rating, Ragweed: 95
Common ragweed; [6]
  Plant response rating, Ragweed: 90
Common ragweed; [7]
  Plant response rating, Ragweed: 75
Annual bluegrass; [1]
  Plant response rating, Bluegrass: 98
Annual bluegrass; [2]
  Plant response rating, Bluegrass: 98
Annual bluegrass; [3]
  Plant response rating, Bluegrass: 100
Annual bluegrass; [4]
  Plant response rating, Bluegrass: 100
Annual bluegrass; [5]
  Plant response rating, Bluegrass: 100
Annual bluegrass; [6]
  Plant response rating, Bluegrass: 98
Annual bluegrass; [7]
  Plant response rating, Bluegrass: 98
Broadleaf signalgrass; [1]
  Plant response rating, Signalgrass: 98
Broadleaf signalgrass; [2]
  Plant response rating, Signalgrass: 95
Broadleaf signalgrass; [3]
  Plant response rating, Signalgrass: 75
Broadleaf signalgrass; [4]
  Plant response rating, Signalgrass: 75
Broadleaf signalgrass; [5]
  Plant response rating, Signalgrass: 95
Broadleaf signalgrass; [6]
  Plant response rating, Signalgrass: 90
Broadleaf signalgrass; [7]
  Plant response rating, Signalgrass: 35
Common groundsel; [1]
  Plant response rating, Groundsel: 100
Common groundsel; [2]
  Plant response rating, Groundsel: 100
Common groundsel; [3]
  Plant response rating, Groundsel: 100
Common groundsel; [4]
  Plant response rating, Groundsel: 100
Common groundsel; [5]
  Plant response rating, Groundsel: 100
Common groundsel; [6]
  Plant response rating, Groundsel: 95
Common groundsel; [7]
  Plant response rating, Groundsel: 20
itchgrass; [1]
  Plant response rating, Itchgrass: 95
itchgrass; [2]
  Plant response rating, Itchgrass: 95
itchgrass; [3]
  Plant response rating, Itchgrass: 90
itchgrass; [4]
  Plant response rating, Itchgrass: 95
itchgrass; [5]
  Plant response rating, Itchgrass: 95
itchgrass; [6]
  Plant response rating, Itchgrass: 90
itchgrass; [7]
  Plant response rating, Itchgrass: 90
Surinam grass; [1]
  Plant response rating, Surinam Grass: 98
Surinam grass; [2]
  Plant response rating, Surinam Grass: 95
Surinam grass; [3]
  Plant response rating, Surinam Grass: 85
Surinam grass; Preemergence, 125 g ai/ha, scale 0 to 100
  Plant response rating, Surinam Grass: 90
Surinam grass; [5]
  Plant response rating, Surinam Grass: 100
Surinam grass; [6]
  Plant response rating, Surinam Grass: 90
Surinam grass; [7]
  Plant response rating, Surinam Grass: 75
Tropical spiderwort; [1]
  Plant response rating, Spiderwort: 95
Tropical spiderwort; [2]
  Plant response rating, Spiderwort: 90
Tropical spiderwort; [3]
  Plant response rating, Spiderwort: 70
Tropical spiderwort; [4]
  Plant response rating, Spiderwort: 75
Tropical spiderwort; [8]
  Plant response rating, Spiderwort: 80
Tropical spiderwort; [5]
  Plant response rating, Spiderwort: 95
Tropical spiderwort; [6]
  Plant response rating, Spiderwort: 75
Tropical spiderwort; [7]
  Plant response rating, Spiderwort: 60

Reference: patent publication US20060069132A1, “Azolecarboxamide herbicides” (priority 2004, published 2006)
